# Reference: patent US8592419B2, “Ceramides and apoptosis-signaling ligand” (MUSC Foundation for Research Development, priority 2004, dated 2013)
# Where a SMILES comes first, the peptide text is derived from it. [ ]: non-standard residue; d: D form. The star is where a group is joined. Sta = CC(C)C[C@H](N)[C@@H](O)CC(=O)O; Isovaleryl = CC(C)CC(=O)*; Cbz = O=C(OCc1ccccc1)*; CH2F = FC*
# Experiments:
# lysosomes of DU145 cells = experiment: Lysosomal stability assay (LysoTracker Red); assay type: cell-based, human; details: DU145 cells, 1 hour; LCL204 10 μM, C6-ceramide 30 μM, B13 20 μM
# Procedure: Lysosoinal stability assay. Lysosomal stability was measured using the fluorescent dye LysoTracker Red (LTR). Cells were seeded overnight in 60 mm plates. The next day, medium was removed and replaced with medium containing 200 nM LTR. Cells were loaded with LTR for 30 minutes at 37° C. LTR was removed and cells were washed once with PBS, then medium containing the treatment was added for the indicated time. After treatment, cells were lifted with trypsin, washed once in PBS, and resuspended in 0.5 mL growth medium. LTR fluorescence was measured using FACS analysis (564-606 nm) as above. A decrease in fluorescence intensity corresponded to an increase in lysosomal pH, and a minimum of 10,000 events were scored for each sample.
# ASMase = biological target: T1, ASMase (Homo sapiens, UniProt P17405); experiment: Acid sphingomyelinase activity assay; assay type: cell-based; details: DU145 cells, 2-hour LCL204 treatment
# T1 construct: DU145 cells were lysed in 50 mM Tris (pH=7.4) using a probe sonicator; endogenous in cells; host or cells: DU145 (lysate of treated cells)
# Procedure: Acid Sphingomyelinase Activity Assay. DU145 cells were lysed in 50 mM Tris (pH=7.4) using a probe sonicator. Cellular debris was removed after centrifugation at 3000×g for 10 minutes. Proteins (50 μg) were adjusted to a total volume of 100 μl and the reaction was started by adding 100 μl of the reaction mixture containing 1 mM EDTA, 250 mM sodium acetate (pH 5.0), 100 μM [choline-methyl-^14C] sphingomyelin and 0.1% Triton X. After incubation at 37° C. for one hour, the reaction was stopped by adding 1.5 ml of chloroform/methanol (2:1) and then 200 μl of water. Phases were separated by centrifugation at 2000×g for 5 minutes. Quantitation of the amount of released radioactive phosphocholine was determined by subjecting 400 μl of the upper phase to scintillation counting.
# acid ceramidase (AC) = biological target: T2, acid ceramidase (AC) (Homo sapiens, UniProt Q13510); experiment: Immunoblot of acid ceramidase protein; assay type: cell-based; details: DU145 cells, one hour pretreatment, then LCL204 10 μM 6 hours
# T2 construct: endogenous in cells
# T2 sequence (Q13510 22-395): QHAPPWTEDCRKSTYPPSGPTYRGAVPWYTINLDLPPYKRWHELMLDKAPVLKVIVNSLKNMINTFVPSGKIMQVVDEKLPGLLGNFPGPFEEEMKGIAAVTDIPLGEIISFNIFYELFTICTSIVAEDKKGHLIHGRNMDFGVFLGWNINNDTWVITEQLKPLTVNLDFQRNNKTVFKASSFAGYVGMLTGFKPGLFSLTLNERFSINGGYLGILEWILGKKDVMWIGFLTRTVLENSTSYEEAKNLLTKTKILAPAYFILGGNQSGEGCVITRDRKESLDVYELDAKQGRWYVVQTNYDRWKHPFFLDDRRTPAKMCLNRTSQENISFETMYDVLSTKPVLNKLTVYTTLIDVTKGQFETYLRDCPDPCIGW
# Procedure: (§1) Immunoblot analysis. Cells were seeded in 60mm plates as described above and treated accordingly. Cells were lifted by gently scraping the plates, washed once with ice cold PBS and then lysed in lysis buffer (PBS, 1% Triton X-100, 10% glycerol) containing protease inhibitors pepstatin A (0.5 μg/ml), leupeptin (0.5 μg/ml), aprotinin (5 μg/ml), and PMSF (100 μg/ml) for 10 minutes on ice. Insoluble material was removed by centrifugation at 14,000 rpm for 15 minutes at 4° C. The supernatants were then supplemented with SDS at a final concentration of 2% and stored at −80° C. Protein concentrations were determined using the DC Protein Assay (BioRad Laboratories; Hercules, CA, USA) according to the manufacturer's instructions. 50 μg of protein per sample (unless otherwise indicated) were separated on NuPAGE 4-12% Bis-Tris gels (Invitrogen; Carlsbad, CA, USA) and transferred to nitrocellulose membranes (BioRad). Following transfer, membranes were blocked for 1 hour at room temperature in Tris-buffered saline (TBS) containing 0.1% Tween-20 and 5% nonfat dry milk and incubated overnight at 4° C. with primary antibody at a dilution of 1:2,000(actin), 1:1,000(cytochrome c, COX IV, Bax, Bak, p53, p38, P-p38), 1:500(P-JNK, JNK), 1:250 (AC, p73), or 1:400(LAMP-1, cathepsin B). Overnight incubations were performed in 5% milk in TBS-Tween. Following overnight incubation, membranes were washed three times for 10 minutes each in TBS-Tween and incubated for 1 hour at room temperature with secondary antibody in 5% milk TBS-Tween at a dilution 1:5,000 (goat anti-mouse IgG) or 1:50,000 (goat anti-rabbit). Membranes were then washed three times more and incubated for 5 minutes at room temperature with Super Signal HRP substrate (Pierce Biotechnology Inc.; Rockford, IL, USA).
# L929 cells = experiment: TNFα-induced PGE2 release; assay type: cell-based; details: TNFα-treated L929 mouse fibroblast cells, preliminary data
# Source text: Interleukin-1 is a major inducer of inflammation and TNF is an important regulator of the reaction. Both cytokines can activate ceramidase, and thus inhibiting the activity of ceramidase can result in an anti-inflammatory effect. This may involve the prevention of the formation of sphingosine and sphingosine phosphate which have pro-inflammatory effects. Also, inhibition of ceramidase may prevent the hyperproliferation of immune cells that are important for inflammation. […] The release of PGE2 is also shown to be inhibited by D-(N-myristolyamino)-1-phenyl-1-propanol), D-MAPP, which is an inhibitor of one of the ceramidase. This observation may be important for inhibiting inflammatory reactions that occur in conditions, such as but not limited to rheumatoid arthritis. Thus, it is possible to treat or prevent inflammation by regulating the level of cellular ceramide using the method of the invention. As discussed above, ceramide level can be increased by administering compounds of the present invention that can inhibit mitochondrial ceramidase.
# DU145 cells [1] = experiment: Effect of doxorubicin on apoptotic resistance of DU145 cells; assay type: cell-based, human; details: 0.2 μg/ml
# Source text: The viruses described in Rubinchik et al. had been used under in vivo conditions to treat prostate cancer xenografts. […]. […] One of the limitations in PCa gene therapy is delivery of the therapeutic gene to every cell in the tumor. One way to overcome this is to amplify the response to the delivered gene by taking advantage of the bystander effect. For example, virally-expressed wild-type p53 is capable of inducing apoptosis in many types of cancer cells and is reported to have bystander activity by inducing localized FasL expression which recruits neutrophils infiltration that is believed to play a critical role in the bystander mechanism. In practice, the bystander effect, if activated , will result in regression of a solid tumor in spite of the physician's inability to deliver, by virus or liposome, a therapeutic gene to every cell. […] In the DU145 model of prostate cancer, the inventors determined that resistance to the induction of apoptosis through the Fas receptor signaling pathway is due to overexpression of apoptotic resistance genes including cFLIPs (Hyer et al., Cancer Biology and Therapy 1(4): 405-410, 2002). […] However, expression of apoptotic resistance genes in some cancers, including in the DU145 model, make the cells relatively insensitive to vesicle-mediated bystander activity. To overcome this, a number of different chemotherapeutic drugs and other small molecules were examined for their effect on apoptotic resistance mechanisms. […] This decrease in protein levels may be due to proteasomal degradation or a translational block. Under these conditions, a 20% increase in sensitivity of apoptotic vesicles is observed with 0.2 μg/ml doxorubicin. […]
# DU145 cells [2] = experiment: Cell death by MTS assay, ceramide analog combined with AdGFPFasL virus; assay type: cell-based, human
# Procedure: LCL102, a ceramidase inhibitor, which acts to increasing intracellular ceramide levels by […], were tested in this system. This molecule was highly efficient at activating cell death in DU145 cells at nontoxic doses if combined with AdGFPFasL virus at MOIs achievable in vivo. DU145 cells growing in 96 well plates at 1×10^4 cells/well are treated with either media alone or LCL102 at 2 uM for 48 hours followed by AdGFPFasL for 24 hours at the MOI (5-80). Cell death is assayed by the MTS assay. At 2 uM LCL102 and 5MOI of virus, cell death is amplified 4-fold compared to LCL102 alone (FIG. 14).
# DU145 cells [3] = experiment: MTS cell viability assay in DU145 cells; assay type: cell-based, human; details: for reproduction of the apoptotic consequences of LCL204-induced lysosomal rupture: agents that strictly alter lysosomal pH
# Procedure: MTS cytotoxicity assays for LCL204 treatments. Cell viability was determined using the CellTiter 96 AQueous One Solution Cell Proliferation Assay (Promega; Madison, Wis., USA). 1×10^4 cells per well were seeded in 96-well plates overnight. The next day media was removed and replaced with either 100 μl media with vehicle control or media containing LCL204 at desired concentrations. Assays were carried out according to manufacturer's instruction as previously described (60). For experiments using enzyme inhibitors and LCL204, media was removed and replaced with 50 μl media containing vehicle only or indicated inhibitor. Cells were pretreated 1 hour at 37° C. before adding 50 μl media containing vehicle, inhibitor only, LCL204 only (2× concentration), or a combination. The remainder of the assay was carried out as described above.
# PUMA = experiment: Immunoblot of PUMA; assay type: cell-based, human; details: PPC-1/pcDNA3 cells, 40 μM SP600125 with LCL204
# Procedure: as §1
# T1 sequence (P17405 47-631): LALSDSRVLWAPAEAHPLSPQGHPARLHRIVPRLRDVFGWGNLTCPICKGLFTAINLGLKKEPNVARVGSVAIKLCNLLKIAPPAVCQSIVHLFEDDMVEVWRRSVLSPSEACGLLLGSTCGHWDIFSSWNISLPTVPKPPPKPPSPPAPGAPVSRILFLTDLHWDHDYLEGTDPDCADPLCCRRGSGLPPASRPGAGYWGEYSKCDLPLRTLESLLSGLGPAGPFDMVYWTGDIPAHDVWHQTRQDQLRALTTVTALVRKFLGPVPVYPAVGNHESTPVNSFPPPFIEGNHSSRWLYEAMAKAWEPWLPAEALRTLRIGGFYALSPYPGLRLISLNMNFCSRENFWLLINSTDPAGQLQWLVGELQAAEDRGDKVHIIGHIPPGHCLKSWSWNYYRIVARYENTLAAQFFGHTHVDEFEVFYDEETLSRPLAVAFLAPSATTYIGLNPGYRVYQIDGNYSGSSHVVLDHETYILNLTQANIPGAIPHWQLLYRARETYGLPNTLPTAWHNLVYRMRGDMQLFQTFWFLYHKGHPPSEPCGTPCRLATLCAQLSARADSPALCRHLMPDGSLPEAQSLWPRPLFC
smiles,measurement,setting,value
"CCCCCCCCCCCCCC(=O)N[C@H](CO)[C@H](O)c1ccc([N+](=O)[O-])cc1 [B13, reference compound]",shift in LTR fluorescence (rise in lysosomal pH),lysosomes of DU145 cells,did not have this effect
"CCCCCCCCCCCCC/C=C/[C@@H](O)[C@H](CO)NC(=O)CCCCC [C6-ceramide, reference compound]",shift in LTR fluorescence (rise in lysosomal pH),lysosomes of DU145 cells,did not have this effect
"CCCNC(=O)[C@H]1O[C@@H]1C(=O)N[C@H](C(=O)N1CCC[C@H]1C(=O)OC)[C@@H](C)CC [CA074Me, reference compound]",effect on LCL204-induced loss of ASMase activity,ASMase,loss of activity was blocked
same,effect of protease inhibitor pretreatment on LCL204-induced AC protein loss,acid ceramidase (AC),blocked AC degradation
CCCCCCCCCCCCCC(=O)NC(C)C(O)c1ccccc1 [D-MAPP],release of PGE2,L929 cells,inhibited
COc1cccc2c1C(=O)c1c(O)c3c(c(O)c1C2=O)C[C@@](O)(C(=O)CO)C[C@@H]3O[C@H]1C[C@H](N)[C@H](O)[C@H](C)O1 [Doxorubicin],cFLIP protein expression,DU145 cells [1],decreases expression of cFLIP protein
same,increase in sensitivity of apoptotic vesicles,DU145 cells [1],20%
same,toxicity to DU145 cells,DU145 cells [1],toxic to DU145 cells at 48-72 hours
"CCCCCCCCCCCCCCN[C@H](CO)[C@H](O)c1ccc([N+](=O)[O-])cc1 [LCL102, (1R,2R)-2-N-Tetradecylamino-1-(4-nitro-phenyl)-1,3-propandiol]",amplification of cell death compared to LCL102 alone,"DU145 cells [2]; 2 uM for 48 hours, then AdGFPFasL 5MOI for 24 hours",4 fold
same,increase of the ability of AdGFPFasL to kill tumor cells,"DU145 cells [2]; in vitro, subtoxic doses",as much as ten-fold
CC(C)C[C@@H](C=O)NC(=O)[C@H](CC(C)C)NC(=O)[C@H](CC(C)C)NC(=O)OCc1ccccc1 [MG132] (Cbz-Leu-Leu-Leu-aldehyde),effect of protease inhibitor pretreatment on LCL204-induced AC protein loss,acid ceramidase (AC),blocked AC degradation
Cl.N [NH4Cl],reproduction of the apoptotic consequences of LCL204-induced lysosomal rupture,DU145 cells [3],could not be reproduced
"Oc1c2ccccc2c2c3c(cccc13)N=N2 [SP600125, reference compound]",time until which LCL204-induced PUMA induction was delayed,PUMA,approximately 6 hours
CO/C1=C\C(C)=C\[C@@H](C)[C@@H](O)[C@@H](C)C/C(C)=C/C=C/[C@H](OC)[C@@H]([C@@H](C)[C@@H](O)[C@H](C)[C@@]2(O)C[C@@H](O)[C@H](C)[C@@H](C(C)C)O2)OC1=O [bafilomycin A1],reproduction of the apoptotic consequences of LCL204-induced lysosomal rupture,DU145 cells [3],could not be reproduced
CC(C)CC(=O)N[C@H](C(=O)N[C@H](C(=O)N[C@@H](CC(C)C)[C@@H](O)CC(=O)N[C@@H](C)C(=O)N[C@@H](CC(C)C)[C@@H](O)CC(=O)O)C(C)C)C(C)C [pepstatin A] (Isovaleryl-VV[Sta]A[Sta]-OH),effect of protease inhibitor pretreatment on LCL204-induced AC protein loss,acid ceramidase (AC),no effect
COC(=O)C[C@H](NC(=O)[C@H](C)NC(=O)[C@@H](NC(=O)OCc1ccccc1)C(C)C)C(=O)CF [zVAD-fmk] (Cbz-Val-Ala-Asp(OMe)-CH2F),LCL204-mediated cell death after pre-treatment with caspase inhibitor,"DU145 cells [3]; pre-treated one hour, then LCL204 24 hours, especially below 15 μM LCL204",cell death was substantially reduced
same,effect of protease inhibitor pretreatment on LCL204-induced AC protein loss,acid ceramidase (AC),blocked AC degradation
